Measurements published in patent publication US10323022B2, “Pyrrolidinyl urea, pyrrolidinyl thiourea and pyrrolidinyl guanidine compounds as TrkA kinase inhibitors” (Array BioPharma Inc., priority 2011, dated 2019).
pIC50: −log10 of the molar value. Counter-ions that a name gives are not always drawn.

Target: TrkA (Homo sapiens (Human), UniProt P04629)
Experiment: TrkA Omnia Assay
Format: biochemical
Details: averaged IC50; 20 nM enzyme, 500 μM ATP, 10 μM peptide substrate
Outline: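 Recombinant TrkA (20 nM) preincubated 10 min at ambient temperature with compound, then Omnia Tyr Peptide #4 (10 μM) and ATP (500 μM) added in 25 mM MOPS pH 7.5, 5 mM MgCl2, 0.005% Triton X-100. Fluorescence (ex 360/em 485 nm) followed continuously for 70 min; IC50 from initial rates by 4- or 5-parameter logistic fit.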

Sequence of TrkA (P04629 33-796): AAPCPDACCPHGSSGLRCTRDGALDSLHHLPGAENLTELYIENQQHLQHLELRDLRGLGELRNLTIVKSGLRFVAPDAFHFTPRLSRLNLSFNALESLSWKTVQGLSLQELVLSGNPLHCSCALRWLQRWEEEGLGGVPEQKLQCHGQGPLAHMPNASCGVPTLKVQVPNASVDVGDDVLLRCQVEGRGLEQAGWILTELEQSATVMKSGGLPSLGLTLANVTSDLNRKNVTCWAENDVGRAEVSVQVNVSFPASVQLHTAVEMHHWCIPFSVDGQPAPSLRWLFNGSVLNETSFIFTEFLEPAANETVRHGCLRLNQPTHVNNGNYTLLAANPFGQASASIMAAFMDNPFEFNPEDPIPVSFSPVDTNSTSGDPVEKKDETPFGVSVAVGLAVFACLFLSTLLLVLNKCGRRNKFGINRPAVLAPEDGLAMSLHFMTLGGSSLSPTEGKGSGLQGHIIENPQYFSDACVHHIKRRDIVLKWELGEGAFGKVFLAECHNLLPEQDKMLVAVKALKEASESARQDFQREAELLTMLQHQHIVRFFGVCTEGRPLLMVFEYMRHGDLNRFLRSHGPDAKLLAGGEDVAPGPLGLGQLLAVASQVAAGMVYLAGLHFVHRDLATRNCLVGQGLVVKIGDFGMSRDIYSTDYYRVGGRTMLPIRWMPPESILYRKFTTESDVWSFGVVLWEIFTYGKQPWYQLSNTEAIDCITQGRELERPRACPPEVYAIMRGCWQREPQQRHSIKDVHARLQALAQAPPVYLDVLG

Row | pIC50 | Structure (SMILES)
1 | > 7.00 | CCc1c(OCC(C)(C)O)nn(-c2ccccc2)c1NC(=O)N[C@@H]1CN(CCOC)C[C@H]1c1ccc(F)c(F)c1 [Example 542, 1-((3S,4R)-4-(3,4-difluorophenyvl)-1-(2-methoxyethyl)pyrrolidin-3-yl)-3-(4-ethyl-3-(2-hydroxy-2-methylpropoxy)-1-phenyl-1H-pyrazol-5-yl)urea]
2 | > 7.00 | COCCN1C[C@@H](NC(=O)Nc2c(-c3ccccc3)nn(CC(F)(F)F)c2C)[C@H](c2ccc(F)c(F)c2)C1 [Example 643, 1-((3S,4R)-4-(3,4-difluorophenyl)-1-(2-methoxyethyl)pyrrolidin-3-yl)-3-(5-methyl-3-phenyl-1-(2,2,2-trifluoroethyl)-1H-pyrazol-4-yl)urea]
3 | > 7.00 | COCCN1C[C@@H](NC(=O)Nc2c(C)c(OC[C@H](C)O)nn2-c2ccccc2)[C@H](c2cc(F)c(F)c(F)c2)C1 [Example 561, 1-(3-((S)-2-hydroxypropoxy)-4-methyl-1-phenyl-1H-pyrazol-5-yl)-3-((3S,4R)-1-(2-methoxyethyl)-4-(3,4,5-trifluorophenyl)pyrrolidin-3-yl)urea]
4 | 6.00 to 7.00 | O=C(Nc1c2c(nn1-c1ccccc1)CCC2)N[C@@H]1CN(CC(F)(F)F)C[C@H]1c1cccc(F)c1 [Example 200, 1-((3S,4R)-4-(3-fluorophenyl)-1-(2,2,2-trifluoroethyl)pyrrolidin-3-yl)-3-(2-phenyl-2,4,5,6-tetrahydrocyclopenta[c]pyrazol-3-yl)urea]
5 | > 7.00 | COCCN1C[C@@H](NC(=O)Nc2c(C)c(-c3cnn(C(C)C)c3)nn2-c2ccccc2)[C@H](c2ccc(F)c(F)c2)C1 [Example 503, 1-((3S,4R)-4-(3,4-difluorophenyvl)-1-(2-methoxyethyl)pyrrolidin-3-yl)-3-(1′-isopropyl-4-methyl-1-phenyl-1H, 1′H-[3,4′-bipyrazol]-5-yl)urea]
6 | 5.00 to 6.00 | COCCN1C[C@@H](NC(=O)Nc2cc(C(C)(C)C)nn2-c2ccc(C)cc2)[C@H](c2ccccc2)C1 (relative stereo) [Example 2, 1-(3-tert-butyl-1-p-tolyl-1H-pyrazol-5-yl)-3-(trans-1-(2-methoxyethyl)-4-phenylpyrrolidin-3-yl) urea hydrochloride]
7 | 6.00 to 7.00 | COCCN1C[C@@H](NC(=O)Nc2c(-c3ccccc3)c(C)nn2C)[C@H](c2ccccc2)C1 (relative stereo) [Example 28, 1-(1,3-dimethyl-4-phenyl-1H-pyrazol-5-yl)-3-(trans-1-(2-methoxyethyl)-4-phenylpyrrolidin-3-yl)urea]
8 | 6.00 to 7.00 | COCCN1CC(c2cnn(C)c2)[C@H](NC(=O)Nc2c(Br)c(C)nn2-c2ccccc2)C1 (stereo partly shown) [Example 332]
9 | > 7.00 | COCCN1C[C@@H](NC(=O)Nc2cc(-c3cccc4nccn34)nn2C)[C@H](c2ccc(F)c(F)c2)C1 [Example 61, 1-((3S,4R)-4-(3,4-difluorophenyl)-1-(2-methoxyethyl)pyrrolidin-3-yl)-3-(3-(imidazo[1,2-a]pyridin-5-yl)-1-methyl-1H-pyrazol-5-yl)urea]
10 | > 7.00 | COCCN1C[C@@H](NC(=O)Nc2c(C)c(-c3cnc(OC)nc3)nn2-c2ccccc2)[C@H](c2ccc(F)cc2)C1 [Example 528, 1-((3S,4R)-4-(4-fluorophenyl)-1-(2-methoxyethyl)pyrrolidin-3-yl)-3-(3-(2-methoxypyrimidin-5-yl)-4-methyl-1-phenyl-1H-pyrazol-5-yl)urea]
11 | > 7.00 | COCCN1C[C@@H](NC(=O)Nc2c(C)c(-c3cnc(N(C)C)nc3)nn2-c2ccccc2)[C@H](c2ccc(F)c(F)c2)C1 [Example 527, 1-((3S,4R)-4-(3,4-difluorophenyl)-1-(2-methoxyethyl)pyrrolidin-3-yl)-3-(3-(2-(dimethylamino)pyrimidin-5-yl)-4-methyl-l-phenyl-1H-pyrazol-5-yl)urea]
12 | 6.00 to 7.00 | COCCN1CC(NC(=O)Nc2c3c(nn2-c2ccccc2)CCC3)[C@H](c2cccc(OC)c2)C1 (stereo partly drawn) [Example 48, 1-((3,4-trans)-1-(2-methoxyethyl)-4-(3-methoxyphenyl)pyrrolidin-3-yl)-3-(2-phenyl-2,4,5,6-tetrahydrocyclopenta[c]pyrazol-3-yl)urea]
13 | > 7.00 | O=C(Nc1c2c(nn1-c1ccccc1)CCC2)N[C@@H]1CN(CC(F)(F)F)C[C@H]1c1ccccc1 (relative stereo) [Example 194, 1-((trans)-4-phenyl-1-(2,2,2-trifluoroethyl)pyrrolidin-3-yl)-3-(2-phenyl-2,4,5,6-tetrahydrocyclopenta[c]pyrazol-3-yl)urea]
14 | > 7.00 | COCCN1C[C@@H](NC(=O)Nc2cc(-c3ccccc3)nn2C)[C@H](c2ccccc2)C1 (relative stereo) [Example 13, 1-(trans-1-(2-methoxyethyl)-4-phenylpyrrolidin-3-yl)-3-(1-methyl-3-phenyl-1H-pyrazol-5-yl)urea]
15 | > 7.00 | COCCN1C[C@@H](NC(=O)Nc2c(C)c(OCCF)nn2-c2ccccc2)[C@H](c2cncc(F)c2)C1 [Example 339, 1-(3-(2-fluoroethoxy)-4-methyl-1-phenyl-1H-pyrazol-5-yl)-3-((3S,4R)-4-(5-fluoropyridin-3-yl)-1-(2-methoxyethyl)pyrrolidin-3-yl)urea]
16 | > 7.00 | COCCN1C[C@@H](NC(=O)Nc2c(C)c(-c3cc(C)n(C)n3)nn2-c2ccccc2)[C@H](c2cc(F)cc(F)c2)C1 [Example 306, 1-((3S,4R)-4-(3,5-difluorophenyl)-1-(2-methoxyethyl)pyrrolidin-3-yl)-3-(1′,4,5′-trimethyl-1-phenyl-1H,1′H-[3,3′-bipyrazol]-5-yl)urea]
17 | 6.00 to 7.00 | CCOc1nn(-c2cnccn2)c(NC(=O)N[C@@H]2CN(CCOC)C[C@H]2c2ccc(F)c(F)c2)c1C [Example 394, 1-((3S,4R)-4-(3,4-difluorophenyl)-1-(2-methoxyethyl)pyrrolidin-3-yl)-3-(3-ethoxy-4-methyl-1-(pyrazin-2-yl)-1H-pyrazol-5-yl)urea]
18 | > 7.00 | COCCN1C[C@@H](NC(=O)Nc2c(C)c([C@H]3CCCN3S(C)(=O)=O)nn2-c2ccccc2)[C@H](c2ccc(F)c(F)c2)C1 [Example 595, 1-((3S,4R)-4-(3,4-difluorophenyl)-1-(2-methoxyethyl)pyrrolidin-3-yl)-3-(4-methyl-3-((R)-1-(methylsulfonyl)pyrrolidin-2-yl)-1-phenyl-1H-pyrazol-5-yl)urea]
19 | > 7.00 | CCNC(=O)c1nn(-c2ccccc2)c(NC(=O)N[C@@H]2CN(CCOC)C[C@H]2c2ccc(F)c(F)c2)c1C [Example 461, 5-(3-((3S,4R)-4-(3,4-difluorophenyl)-1-(2-methoxyethyl)pyrrolidin-3-yl)ureido)-N-ethyl-4-methyl-1-phenyl-1H-pyrazole-3-carboxamide]
20 | > 7.00 | COCCN1C[C@@H](NC(=S)Nc2c(C)c(-c3cnn(C)c3)nn2-c2ccccc2)[C@H](c2ccc(F)cc2)C1 [Example 633, 1-((3S,4R)-4-(4-fluorophenyl)-1-(2-methoxyethyl)pyrrolidin-3-yl)-3-(1′,4-dimethyl-1-phenyl-1H, 1′H-3,4′-bipyrazol-5-yl)thiourea]
21 | > 7.00 | COCCN1C[C@@H](NC(=O)Nc2cc(C3CC3)nn2-c2ccccc2)[C@H](c2ccccc2)C1 (relative stereo) [Example 9, 1-(3-cyclopropyl-1-phenyl-1H-pyrazol-5-yl)-3-(trans-1-(2-methoxyethyl)-4-phenylpyrrolidin-3-yl)urea]
22 | 5.00 to 6.00 | COCCN1C[C@@H](NC(=O)Nc2c3c(nn2C)CCC3)[C@H](c2ccccc2)C1 (relative stereo) [Example 27, 1-(trans-1-(2-methoxyethyl)-4-phenylpyrrolidin-3-yl)-3-(2-methyl-2,4,5,6-tetrahydrocyclopenta[c]pyrazol-3-yl)urea]
23 | > 7.00 | CCc1c(-c2cnn(C)c2)nn(-c2ccccc2)c1NC(=O)N[C@@H]1CN(CCOC)C[C@H]1c1ccc(F)c(F)c1 [Example 311, 1-((3S,4R)-4-(3,4-difluorophenyl)-1-(2-methoxyethyl)pyrrolidin-3-yl)-3-(4-ethyl-1′-methyl-1-phenyl-1H,1′H-[3,4′-bipyrazol]-5-yl)urea]
24 | > 7.00 | COCCN1C[C@@H](NC(=O)Nc2c(C)c(OC[C@@H]3COC(C)(C)O3)nn2-c2ccccc2)[C@H](c2ccc(F)c(F)c2)C1 [Example 77, 1-((3S,4R)-4-(3,4-difluorophenyl)-1-(2-methoxyethyl)pyrrolidin-3-yl)-3-(3-(((R)-2,2-dimethyl-1,3-dioxolan-4-yl)methoxy)-4-methyl-1-phenyl-1H-pyrazol-5-yl)urea]
25 | > 7.00 | COCCN1C[C@@H](NC(=O)Nc2c(Br)c(-c3ccccc3)nn2-c2ccccc2)[C@H](c2ccc(F)c(F)c2)C1 [Example 63, 1-(4-bromo-1,3-diphenyl-1H-pyrazol-5-yl)-3-((3S,4R)-4-(3,4-difluorophenyl)-1-(2-methoxyethyl)pyrrolidin-3-yl)urea]
26 | > 7.00 | COCCN1C[C@@H](NC(=O)Nc2c(C)c(-c3cn(C)nc3C)nn2-c2ccccc2)[C@H](c2ccc(F)c(F)c2)C1 [Example 508, 1-((3S,4R)-4-(3,4-difluorophenyl)-1-(2-methoxyethyl)pyrrolidin-3-yl)-3-(1′,3′,4-trimethyl-1-phenyl-1H,1′H-[3,4′-bipyrazol]-5-yl)urea]
27 | 6.00 to 7.00 | COCCOc1nn(-c2ccccc2)c(NC(=O)N[C@@H]2CN(CC#N)C[C@H]2c2ccc(F)c(F)c2)c1C [Example 187, 1-((3S,4R)-1-(cyanomethyl)-4-(3,4-difluorophenyl)pyrrolidin-3-yl)-3-(3-(2-methoxyethoxy)-4-methyl-1-phenyl-1H-pyrazol-5-yl)urea]
28 | 5.00 to 6.00 | CO[C@@H](C)CN1C[C@@H](NC(=O)Nc2c3c(nn2-c2ccccc2)CCC3)[C@H](c2ccccc2)C1 [Example 184, 1-((3S,4R)-1-((S)-2-methoxypropyl)-4-phenylpyrrolidin-3-yl)-3-(2-phenyl-2,4,5,6-tetrahydrocyclopenta[c]pyrazol-3-yl)urea]
